Assay results published in patent US20250346597A1, “CONDENSED HETEROCYCLIC COMPOUNDS AS INHIBITOR OF DIACYLGLYCEROL KINASES” (BEONE MEDICINES I GMBH, priority 2023, published 2025).

What was measured:
DGKα = DGKα (Homo sapiens (Human), UniProt P23743); experiment: Biochemical DGK IC50 assay (ADP-Glo, lipid micelle substrate), DGKα; settings: full length DGKα […], ATP 140 μM, DAG 80 μM; also: full length DGKα 7.5 nM
Summary of the method: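 Full-length human DGKα assayed by ADP-Glo with DAG/PS lipid micelle substrate at room temperature in 50 mM HEPES, 10 mM MgCl2, 0.01% BSA, 0.1 mM Na3VO4, 0.005% Tween-20, 0.01 mM CaCl2.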

DGKζ = DGKζ (Homo sapiens (Human), UniProt Q13574); experiment: Biochemical DGK IC50 assay (ADP-Glo, lipid micelle substrate), DGKζ; settings: full length DGKζ 0.5 nM, ATP 140 μM, DAG 80 μM
Summary of the method: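 Full-length human His-TEV-tagged DGKζ, expressed in Sf9 cells and purified, was run at room temperature on DAG/PS lipid micelles in 50 mM HEPES, 10 mM MgCl2, 0.01 mM CaCl2 buffer. After 1 h reaction, ADP formed was detected by ADP-Glo luminescence. IC50s came from inhibition across increasing compound concentrations.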

DGKζ, sequence (Q13574 other isoform, or with tags, fused parts or gaps): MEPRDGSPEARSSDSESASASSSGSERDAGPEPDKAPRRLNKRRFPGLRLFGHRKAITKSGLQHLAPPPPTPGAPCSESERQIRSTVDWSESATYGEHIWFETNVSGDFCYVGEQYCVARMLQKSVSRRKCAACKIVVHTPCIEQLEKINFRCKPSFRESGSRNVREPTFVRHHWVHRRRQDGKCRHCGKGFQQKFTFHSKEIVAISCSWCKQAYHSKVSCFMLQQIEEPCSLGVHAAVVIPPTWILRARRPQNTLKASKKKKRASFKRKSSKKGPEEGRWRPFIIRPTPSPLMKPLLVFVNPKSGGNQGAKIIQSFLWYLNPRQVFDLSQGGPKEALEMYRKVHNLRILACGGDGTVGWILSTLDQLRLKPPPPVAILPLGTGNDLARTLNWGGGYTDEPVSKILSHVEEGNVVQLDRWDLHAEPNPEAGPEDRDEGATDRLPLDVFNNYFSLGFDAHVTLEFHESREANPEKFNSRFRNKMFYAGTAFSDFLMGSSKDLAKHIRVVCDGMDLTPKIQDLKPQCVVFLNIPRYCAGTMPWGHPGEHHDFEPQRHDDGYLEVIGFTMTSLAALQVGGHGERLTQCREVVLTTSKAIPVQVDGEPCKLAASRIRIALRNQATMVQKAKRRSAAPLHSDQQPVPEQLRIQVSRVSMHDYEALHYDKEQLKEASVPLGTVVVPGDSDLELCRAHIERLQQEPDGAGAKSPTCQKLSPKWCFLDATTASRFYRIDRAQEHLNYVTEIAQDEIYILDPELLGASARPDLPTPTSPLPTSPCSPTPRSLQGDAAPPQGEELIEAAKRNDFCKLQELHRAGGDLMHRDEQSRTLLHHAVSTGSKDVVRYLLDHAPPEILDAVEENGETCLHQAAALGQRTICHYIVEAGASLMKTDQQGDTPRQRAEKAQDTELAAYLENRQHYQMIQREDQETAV
DGKα, sequence (P23743 whole entry): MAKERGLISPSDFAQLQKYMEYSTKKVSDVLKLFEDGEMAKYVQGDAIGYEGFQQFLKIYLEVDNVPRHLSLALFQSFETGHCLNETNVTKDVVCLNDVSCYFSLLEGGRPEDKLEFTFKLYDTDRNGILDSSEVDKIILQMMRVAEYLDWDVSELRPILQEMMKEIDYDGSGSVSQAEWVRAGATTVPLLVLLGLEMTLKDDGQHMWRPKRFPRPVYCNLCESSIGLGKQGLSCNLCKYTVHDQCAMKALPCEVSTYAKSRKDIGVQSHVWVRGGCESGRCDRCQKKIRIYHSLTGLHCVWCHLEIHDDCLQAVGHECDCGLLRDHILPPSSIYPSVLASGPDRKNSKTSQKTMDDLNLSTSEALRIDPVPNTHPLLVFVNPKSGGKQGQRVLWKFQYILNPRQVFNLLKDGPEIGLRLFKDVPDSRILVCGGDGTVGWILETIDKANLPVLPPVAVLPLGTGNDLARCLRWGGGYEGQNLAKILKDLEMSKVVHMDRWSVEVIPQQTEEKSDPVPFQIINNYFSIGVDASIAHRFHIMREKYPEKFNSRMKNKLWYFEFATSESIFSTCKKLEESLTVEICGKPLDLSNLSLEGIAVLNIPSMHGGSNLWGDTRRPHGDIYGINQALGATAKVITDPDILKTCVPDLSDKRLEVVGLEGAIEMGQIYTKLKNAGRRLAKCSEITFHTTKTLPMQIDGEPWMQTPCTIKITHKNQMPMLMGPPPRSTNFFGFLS

Row | SMILES | IC50 (DGKα) [nM] | IC50 (DGKζ) [nM]
1 | CC[C@H]1CN(C(C)c2ccc3c(c2F)OC(C)(C)O3)[C@H](CC)CN1c1cc(=O)n(C)c2cn(CC#N)nc12 (stereo partly drawn) [Compound A71, 2-(7-((2S,5R)-2,5-diethyl-4-(1-(4-fluoro-2,2-dimethylbenzo[d][1,3]dioxol-5-yl)ethyl)piperazin-1-yl)-4-methyl-5-oxo-4,5-dihydro-2H-pyrazolo[4,3-b]pyridin-2-yl)acetonitrile] | 1830 | 4
2 | CC[C@H]1CN(C(C)c2ccc3c(n2)CCC3)[C@H](CC)CN1c1cc(=O)n(C)c2cn(CC#N)nc12 (stereo partly drawn) [Compound A72, 2-(7-((2S,5R)-4-(1-(6,7-dihydro-5H-cyclopenta[b]pyridin-2-yl)ethyl)-2,5-diethylpiperazin-1-yl)-4-methyl-5-oxo-4,5-dihydro-2H-pyrazolo[4,3-b]pyridin-2-yl)acetonitrile] | 27 | 33
3 | CC[C@H]1CN(C(C)c2ccc3c(n2)CCO3)[C@H](CC)CN1c1cc(=O)n(C)c2cn(CC#N)nc12 (stereo partly drawn) [Compound A73, 2-(7-((2S,5R)-4-(1-(2,3-dihydrofuro[3,2-b]pyridin-5-yl)ethyl)-2,5-diethylpiperazin-1-yl)-4-methyl-5-oxo-4,5-dihydro-2H-pyrazolo[4,3-b]pyridin-2-yl)acetonitrile] | 91 | 126
4 | CC[C@H]1CN(C(C)c2cnc3c(c2)CCO3)[C@H](CC)CN1c1cc(=O)n(C)c2cn(CC#N)nc12 (stereo partly drawn) [Compound A74, 2-(7-((2S,5R)-4-(1-(2,3-dihydrofuro[2,3-b]pyridin-5-yl)ethyl)-2,5-diethylpiperazin-1-yl)-4-methyl-5-oxo-4,5-dihydro-2H-pyrazolo[4,3-b]pyridin-2-yl)acetonitrile] | 5820 | 475
5 | CC[C@H]1CN(C(C)c2ccc3c(F)cnn3c2)[C@H](CC)CN1c1cc(=O)n(C)c2cn(CC#N)nc12 (stereo partly drawn) [Compound A76, 2-(7-((2S,5R)-2,5-diethyl-4-(1-(3-fluoropyrazolo[1,5-a]pyridin-6-yl)ethyl)piperazin-1-yl)-4-methyl-5-oxo-4,5-dihydro-2H-pyrazolo[4,3-b]pyridin-2-yl)acetonitrile] | 1600 | 179
6 | CC[C@H]1CN(C(C)c2cnc3c(c2)ncn3C)[C@H](CC)CN1c1cc(=O)n(C)c2cn(CC#N)nc12 (stereo partly drawn) [Compound A78, 2-(7-((2S,5R)-2,5-diethyl-4-(1-(3-methyl-3H-imidazo[4,5-b]pyridin-6-yl)ethyl)piperazin-1-yl)-4-methyl-5-oxo-4,5-dihydro-2H-pyrazolo[4,3-b]pyridin-2-yl)acetonitrile] | 25000 | 1870
7 | CC[C@H]1CN(C(C)c2ccc3nscc3c2)[C@H](CC)CN1c1cc(=O)n(C)c2cn(CC#N)nc12 (stereo partly drawn) [Compound A88, 2-(7-((2S,5R)-4-(1-(benzo[c]isothiazol-5-yl)ethyl)-2,5-diethylpiperazin-1-yl)-4-methyl-5-oxo-4,5-dihydro-2H-pyrazolo[4,3-b]pyridin-2-yl)acetonitrile] | 51 | 10
8 | CC[C@H]1CN(C(C)c2ccc3ccsc3c2)[C@H](CC)CN1c1cc(=O)n(C)c2cn(CC#N)nc12 (stereo partly drawn) [Compound A89, 2-(7-((2S,5R)-4-(1-(benzo[b]thiophen-6-yl)ethyl)-2,5-diethylpiperazin-1-yl)-4-methyl-5-oxo-4,5-dihydro-2H-pyrazolo[4,3-b]pyridin-2-yl)acetonitrile] | 28 | 34
9 | CC(c1ccc2ncsc2c1)N1C[C@H](C)N(c2cc(=O)n(C)c3cn(CC#N)nc23)C[C@H]1C (stereo partly drawn) [Compound A93, 2-(7-((2S,5R)-4-(1-(benzo[d]thiazol-6-yl)ethyl)-2,5-dimethylpiperazin-1-yl)-4-methyl-5-oxo-4,5-dihydro-2H-pyrazolo[4,3-b]pyridin-2-yl)acetonitrile] | 493 | 99
10 | CC[C@H]1CN(C(C)c2ccc3ncsc3c2)[C@H](CC)CN1c1c(Br)c(=O)n(C)c2cn(CC#N)nc12 (stereo partly shown) [Compound A94] | 1850 | 974
11 | CC[C@H]1CN(C(C)c2ccc3ncsc3c2)[C@H](CC)CN1c1c(C#N)c(=O)n(C)c2cn(CC#N)nc12 (stereo partly drawn) [Compound A95, 7-((2S,5R)-4-(1-(benzo[d]thiazol-6-yl)ethyl)-2,5-diethylpiperazin-1-yl)-2-(cyanomethyl)-4-methyl-5-oxo-4,5-dihydro-2H-pyrazolo[4,3-b]pyridine-6-carbonitrile] | 52 | 64
12 | CC[C@H]1CN(C(C)c2cc3scnc3cn2)[C@H](CC)CN1c1cc(=O)n(C)c2cn(CC#N)nc12 (stereo partly drawn) [Compound A97, 2-(7-((2S,5R)-2,5-diethyl-4-(1-(thiazolo[4,5-c]pyridin-6-yl)ethyl)piperazin-1-yl)-4-methyl-5-oxo-4,5-dihydro-2H-pyrazolo[4,3-b]pyridin-2-yl)acetonitrile] | 502 | 256
13 | CC[C@H]1CN(C(C)c2ccc3ocnc3c2)[C@H](CC)CN1c1cc(=O)n(C)c2cn(CC#N)nc12 (stereo partly shown) [Compound A105] | 58 | 157
14 | CC[C@H]1CN(C(C)c2ccc3sc(C)nc3c2)[C@H](CC)CN1c1cc(=O)n(C)c2cn(CC#N)nc12 (stereo partly drawn) [Compound A108, 2-(7-((2S,5R)-2,5-diethyl-4-(1-(2-methylbenzo[d]thiazol-5-yl)ethyl)piperazin-1-yl)-4-methyl-5-oxo-4,5-dihydro-2H-pyrazolo[4,3-b]pyridin-2-yl)acetonitrile] | 2650 | 11
15 | CCc1nc2cc(C(C)N3C[C@H](CC)N(c4cc(=O)n(C)c5cn(CC#N)nc45)C[C@H]3CC)ccc2s1 (stereo partly drawn) [Compound A109, 2-(7-((2S,5R)-2,5-diethyl-4-(1-(2-ethylbenzo[d]thiazol-5-yl)ethyl)piperazin-1-yl)-4-methyl-5-oxo-4,5-dihydro-2H-pyrazolo[4,3-b]pyridin-2-y)acetonitrile] | 2430 | 18
16 | CC#CCn1cc2c(n1)c(N1C[C@@H](CC)N(C(C)c3ccc4ncsc4n3)C[C@@H]1C)cc(=O)n2C (stereo partly drawn) [Compound A118, 2-(but-2-yn-1-yl)-7-((2S,5R)-5-ethyl-2-methyl-4-(1-(thiazolo[5,4-b]pyridin-5-yl)ethyl)piperazin-1-yl)-4-methyl-2,4-dihydro-5H-pyrazolo[4,3-b]pyridin-5-one] | 20 | 232
17 | CC#CCn1cc2c(n1)c(N1C[C@@H](CC)N(C(C)c3ccc4scnc4c3)C[C@@H]1C)cc(=O)n2C (stereo partly drawn) [Compound A119, 7-((2S,5R)-4-(1-(benzo[d]thiazol-5-yl)ethyl)-5-ethyl-2-methylpiperazin-1-yl)-2-(but-2-yn-1-yl)-4-methyl-2,4-dihydro-5H-pyrazolo[4,3-b]pyridin-5-one] | 193 | 859
18 | CC[C@H]1CN(C(C)c2ccc(C3CC3)nc2)[C@H](CC)CN1c1cc(=O)n(C)c2cn(C3COC3)nc12 (stereo partly drawn) [Compound A121, 7-((2S,5R)-4-(1-(6-cyclopropylpyridin-3-yl)ethyl)-2,5-diethylpiperazin-1-yl)-4-methyl-2-(oxetan-3-yl)-2,4-dihydro-5H-pyrazolo[4,3-b]pyridin-5-one] | 3080 | 1470
19 | CC[C@H]1CN(C(C)c2ccc(C3CC3)nc2)[C@H](CC)CN1c1cc(=O)n(C)c2cn(CC3COC3)nc12 (stereo partly drawn) [Compound A122, 7-((2S,5R)-4-(1-(6-cyclopropylpyridin-3-yl)ethyl)-2,5-diethylpiperazin-1-yl)-4-methyl-2-(oxetan-3-ylmethyl)-2,4-dihydro-5H-pyrazolo[4,3-b]pyridin-5-one] | 17100 | > 10000
20 | CC[C@H]1CN(C(C)c2ccc3ncsc3c2)[C@H](CC)CN1c1nc(=O)n(C)c2cn(CC#N)nc12 (stereo partly drawn) [Compound A123, 2-(7-((2S,5R)-4-(1-(benzo[d]thiazol-6-yl)ethyl)-2,5-diethylpiperazin-1-yl)-4-methyl-5-oxo-4,5-dihydro-2H-pyrazolo[4,3-d]pyrimidin-2-yl)acetonitrile] | 111 | 11
21 | CC[C@H]1CN(C(C)c2ccc3nc(C)sc3c2)[C@H](CC)CN1c1nc(=O)n(C)c2cn(CC#N)nc12 (stereo partly shown) [Compound A124] | 433 | 39
22 | CC[C@@H]1CN(c2cc(=O)n(C)c3cn(CC#N)nc23)[C@@H](C)CN1C(C)c1ccc2ccsc2n1 (stereo partly shown) [Compound A130] | 215 | 46
23 | CC[C@@H]1CN(c2cc(=O)n(C)c3cn(CC#N)nc23)[C@@H](C)CN1C(C)c1ccc2cc(C)sc2n1 (stereo partly drawn) [Compound A131, 2-(7-((2S,5R)-5-ethyl-2-methyl-4-(1-(2-methylthieno[2,3-b]pyridin-6-yl)ethyl)piperazin-1-yl)-4-methyl-5-oxo-4,5-dihydro-2H-pyrazolo[4,3-b]pyridin-2-yl)acetonitrile] | 246 | 26
24 | CC[C@@H]1CN(c2cc(=O)n(C)c3cn(CC#N)nc23)[C@@H](C)CN1C(C)c1ccc2cc(F)sc2n1 (stereo partly drawn) [Compound A132, 2-(7-((2S,5R)-5-ethyl-4-(1-(2-fluorothieno[2,3-b]pyridin-6-yl)ethyl)-2-methylpiperazin-1-yl)-4-methyl-5-oxo-4,5-dihydro-2H-pyrazolo[4,3-b]pyridin-2-yl)acetonitrile] | 63 | 139
25 | CC#CCn1cc2c(n1)c(N1C[C@@H](CC)N(C(C)c3ccc4nc(C)sc4n3)C[C@@H]1CC)cc(=O)n2C (stereo partly shown) [Compound A137] | 13 | 118
26 | Cc1cc2nc(C(C)N3C[C@H](C)N(c4cc(=O)n(C)c5cn(CC#N)nc45)C[C@H]3C)ccc2s1 (stereo partly drawn) [Compound A155, 2-(7-((2S,5R)-2,5-dimethyl-4-(1-(2-methylthieno[3,2-b]pyridin-5-yl)ethyl)piperazin-1-yl)-4-methyl-5-oxo-4,5-dihydro-2H-pyrazolo[4,3-b]pyridin-2-yl)acetonitrile] | 378 | 74
